Results from US9468647B2, “Methods for the treatment of endometriosis” (Miscon Trading S.A., priority 2003, dated 2016).

Tested on: endometriosis
Experiment: Intralesional administration of progesterone in women with endometriosis (case reports)
Format: in vivo, human
Settings: person, 1 g intracystic and 1 g in each bladder nodule, follow up over 12 months
Protocol: They were regularly monitored by pain scores (visual analog), direct questionnaire, and ultrasound examination. […] Aspiration of the endometrioma and intracystic instillation of 1 g of progesterone was performed. Cystoscopy was carried out and 1 g of progesterone was instilled in each of the nodules in the bladder.

In the case of `CC(=O)[C@H]1CC[C@H]2[C@@H]3CCC4=CC(=O)CC[C@]4(C)[C@H]3CC[C@]12C` [progesterone], the “symptoms on follow up” value (ovarian endometrioma and bladder wall nodules) is reported as “remained symptom free” and the “quality of life with regard to pelvic pain and urinary symptoms” value is reported as “good”.
